From ChEMBL document CHEMBL5052844, “Heteroaryl amides useful as kif18a inhibitors” (2020)

Molecular target: T1, Kinesin-like protein KIF18A (Homo sapiens, UniProt Q8NI77)
T1 sequence (Q8NI77 whole entry): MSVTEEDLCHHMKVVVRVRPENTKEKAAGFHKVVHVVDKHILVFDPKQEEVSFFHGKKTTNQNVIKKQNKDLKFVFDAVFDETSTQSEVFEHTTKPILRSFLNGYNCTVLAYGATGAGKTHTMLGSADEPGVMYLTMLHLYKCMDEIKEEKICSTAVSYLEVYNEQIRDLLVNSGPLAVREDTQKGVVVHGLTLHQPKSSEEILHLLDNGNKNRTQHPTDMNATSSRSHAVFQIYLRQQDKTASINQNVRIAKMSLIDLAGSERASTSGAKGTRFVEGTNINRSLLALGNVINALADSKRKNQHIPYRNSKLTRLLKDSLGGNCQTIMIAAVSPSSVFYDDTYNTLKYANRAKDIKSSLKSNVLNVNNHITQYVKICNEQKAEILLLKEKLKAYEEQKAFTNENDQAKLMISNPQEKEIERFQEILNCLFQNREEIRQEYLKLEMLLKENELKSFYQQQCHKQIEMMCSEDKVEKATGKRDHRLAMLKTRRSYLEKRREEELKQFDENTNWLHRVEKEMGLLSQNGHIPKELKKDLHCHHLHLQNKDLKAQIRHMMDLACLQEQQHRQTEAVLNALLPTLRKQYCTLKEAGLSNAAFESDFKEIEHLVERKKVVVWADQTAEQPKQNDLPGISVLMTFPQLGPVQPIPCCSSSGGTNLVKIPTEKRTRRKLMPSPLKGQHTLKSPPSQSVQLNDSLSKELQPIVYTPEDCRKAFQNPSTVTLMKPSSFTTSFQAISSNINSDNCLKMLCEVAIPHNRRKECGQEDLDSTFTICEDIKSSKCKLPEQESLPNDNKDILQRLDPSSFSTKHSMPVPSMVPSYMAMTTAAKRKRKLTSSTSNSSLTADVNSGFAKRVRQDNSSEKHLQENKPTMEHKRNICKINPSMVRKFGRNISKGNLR
Experiment: Inhibition of recombinant His-tagged human KIF18A (1 to 467 residues) expressed in baculovirus expression system assessed as inhibition of microtubule-stimulated ATPase activity preincubated for 15 mins followed by ATP addition and further incubated for 15 mins and measured after 40 mins by ADP-Glo reagent based assay

IC50: 48 nM
Structure (SMILES): Cc1cc(NC(=O)c2cnc(S(=O)(=O)C3CC3)cc2N2CCC3(CC2)CC3)nc(N2CCC(F)(F)CC2)n1
